In patent US9873693B2 (Sunesis Pharmaceuticals, Inc., priority 2006, dated 2018):
Read-outs that look alike come from different tables or passages of the source.

Tests used:
dephosphorylated PDK1 = dephosphorylated PDK1 (Homo sapiens (Human), UniProt O15530); assay: PDK1 kinase assay (coupled PDK1/AKT/FAM-crosstide, IMAP); type: biochemical; conditions: 25 nM un-phosphorylated PDK1, 24 μM ATP; read-out: Inhibition of dephospo-PDK1 in vitro IC50
Description: A PDK1 kinase assay was performed as follows. PDK1 (amino acids 51-360) and AKT2 (amino acids 140-467 fused to PIFtide, amino acids […]) were expressed as N-terminally tagged GST fusion proteins in insect cells and purified to greater than 90% homogeneity. PDK1 protein was divided into two fractions, one of which was subsequently dephosphorylated. To generate dephosphorylated PDK1, the PDK1 was reacted with GST-tagged lambda-phosphatase in vitro. GST was subsequently cleaved proteolytically for both phosphorylated and dephosphorylated PDK1. Protein preparations were run on glutathione Sepharose columns to remove GST and GST-tagged lambda-phosphatase, if present. Phosphorylated PDK1 and dephosphorylated PDK1 were verified by mass-spectrometry. Enzyme activity was determined in a coupled PDK1/AKT/FAM-crosstide assay using either phosphorylated or unphosphorylated PDK1 and phosphorylation of FAM-crosstide was determined by standard IMAP protocol (Molecular Devices). For inhibition studies, compounds were titrated 3-fold in DMSO and diluted 40-fold into assay buffer (10 mM Tris HCl pH7.2; 10 mM MgCl2; 0.01% Triton X-100; 1 mM DTT) containing PDK1, AKT2, and FAM-crosstide. (final concentrations: 25 nM un-phosphorylated PDK1 or 0.5 nM phosphorylated PDK1, 30 nM unphosphorylated AKT2, and 100 nM crosstide substrate). The kinase reaction was initiated by adding ATP to a final concentration of 24 μM for both forms of PDK1 and incubated at 25° C. for 30 min. To detect assay product, the kinase reaction was combined with Progressive Binding Solution (1:600 Progressive Binding Reagent, 50% Buffer A, 50% Buffer B, Molecular Devices) in a 1:3 ratio. The mixture was incubated for 2 hours at 25° C. and the plate was scanned on an Analyst AD with excitation at 485 nm and emission at 530 nm. The fluorescence polarization value “P” is defined by the equation below. The value “mP” is generated by multiplying the P value for each reaction well by a factor of 1000. The value “ΔmP” for each well is the mP value for that well minus the mP value for the average negative control. P=(Fpar−Fperp)/(Fpar+Fperp) Eq.:
Where “par” is fluorescence intensity parallel to the excitation plane; and “perp” is fluorescence intensity perpendicular to the excitation plane. ΔmP values were plotted as a function of compound concentration and the data were analyzed with a 4-parameter fit using GraphPad Prism software.

phosphorylated PDK1 = phosphorylated PDK1 (Homo sapiens (Human), UniProt O15530); assay: as above; type: biochemical; conditions: 0.5 nM phosphorylated PDK1, 24 μM ATP; read-out: Inhibition of phospo-PDK1 in vitro IC50
Sequence of phosphorylated PDK1 (O15530 51-360): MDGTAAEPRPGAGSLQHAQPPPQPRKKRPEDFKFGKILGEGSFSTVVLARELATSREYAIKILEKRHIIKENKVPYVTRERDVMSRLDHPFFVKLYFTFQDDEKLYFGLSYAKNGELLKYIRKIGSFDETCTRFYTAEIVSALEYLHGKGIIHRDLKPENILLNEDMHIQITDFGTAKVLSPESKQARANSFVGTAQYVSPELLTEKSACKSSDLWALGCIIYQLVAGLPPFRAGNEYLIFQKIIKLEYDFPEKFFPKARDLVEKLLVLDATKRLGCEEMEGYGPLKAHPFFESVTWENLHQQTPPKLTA

phospho-akt (Thr308) = phospho-akt (Thr308) MSD ELISA in PC-3 cells; type: cell-based; conditions: Homo sapiens; for EC50: PC-3, 2 h; for inhibition at 1 µM / inhibition at 10 µM: read-out: Percent Inhibition of phospho-Akt (308) By MSD ELISA
How it was run: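 PC-3 cells plated overnight in 10% FBS medium, then treated with three-fold serial compound dilutions in serum-free medium; DMSO-only wells as high control. Lysates captured on BSA-blocked MSD plates overnight at 4 degrees, detection antibody 1 hr RT, electrochemiluminescence read on MSD reader.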

[1] = PC-3 cells, 2 hours, no serum, read-out: Inhibition of P308 Akt in cells using MSD EC50
[2] = PC-3 cells, 2 hours, no serum, read-out: Reduction of Cellular Levels of Akt p308 By MSD ELISA (EC50 μM)

Sequence of dephosphorylated PDK1 (O15530 51-360): as above

Compound | IC50 (phosphorylated PDK1) [nM] | EC50 (phospho-akt (Thr308); [1]) [µM] | also measured
O=C(Nc1cccn(Cc2ccc(F)c(F)c2)c1=O)c1cccc(-c2c[nH]c3ncccc23)c1 [Cpd 288] |  |  | IC50 (dephosphorylated PDK1): < 500 nM
CC(=O)Nc1cc(NCCCCCNC(=O)c2cccn(Cc3cccc(Cl)c3)c2=O)ncn1 [Cpd 99] | > 10000 |  | IC50 (dephosphorylated PDK1): 500 to 10000 nM
CN(C)CCOc1cc(CNC(=O)c2cccn(Cc3ccc(F)c(F)c3)c2=O)cc(-c2c[nH]c3ncccc23)c1 [Cpd 60] | < 500 | 1 to 5 | 
O=C(NCc1cc(-c2c[nH]c3ncccc23)cc(CO)n1)c1cccn(Cc2ccc(F)c(F)c2)c1=O [Cpd 196] | < 500 | 1 to 5 | 
O=C(NCc1cccc(-c2c[nH]c3ncc(-c4ccoc4)cc23)c1)c1cccn(Cc2ccc(F)c(F)c2)c1=O [Cpd 53] | < 500 | < 1 | 
O=C(NCc1cc(-c2c[nH]c3ncccc23)c[n+]([O-])c1)c1cccn(Cc2ccc(F)c(F)c2)c1=O [Cpd 165] | < 500 | > 5 | 
O=C(NCc1cccc(-c2c[nH]c3cccnc23)c1)c1cccn(Cc2ccc(F)c(F)c2)c1=O [Cpd 241] | 500 to 10000 |  | inhibition at 1 µM (phospho-akt (Thr308); PC-3 cells): < 25%; inhibition at 10 µM (phospho-akt (Thr308); PC-3 cells): 25 to 75%
CC(C)=C1C(=O)Nc2cc(/C=C/CNC(=O)c3cccn(Cc4cc(F)c(F)c(F)c4)c3=O)ccc21 [Cpd 204] | < 500 | 1 to 5 | 
O=C(N[C@@H](COc1ccc2[nH]c(=O)[nH]c2c1)c1ccsc1)c1cccn(Cc2ccc(F)c(F)c2)c1=O [Cpd 190] | < 500 | < 1 | 
N#Cc1cnc2[nH]cc(-c3cccc(CNC(=O)c4cccn(Cc5ccc(F)c(F)c5)c4=O)c3)c2c1 [Cpd 244] | < 500 | < 1 | EC50 (phospho-akt (Thr308); [2]): < 1 µM
O=C(N[C@@H](COc1ccc2[nH]c(=O)[nH]c2c1)c1cccs1)c1cccn(Cc2ccc(F)c(F)c2)c1=O [Cpd 192] | < 500 | < 1 | 
O=C1Nc2cc(/C=C/CNC(=O)c3cccn(Cc4cc(F)c(F)c(F)c4)c3=O)ccc2/C1=C/c1cnc[nH]1 [Cpd 212] | < 500 | 1 to 5 | 
O=C1Nc2cc(/C=C/CNC(=O)c3cccn(Cc4ccc(F)c(F)c4)c3=O)ccc2/C1=C\c1cccnc1 [Cpd 200] | < 500 | 1 to 5 | 
CC(C)Oc1cc(CNC(=O)c2cccn(Cc3ccc(F)c(F)c3)c2=O)cc(-c2c[nH]c3ncc(F)cc23)c1 [Cpd 98] | < 500 | 1 to 5 | 
O=C(NCc1cc(-c2c[nH]c3ncccc23)ccc1F)c1cccn(Cc2ccc(F)c(F)c2)c1=O [Cpd 278] | < 500 |  | inhibition at 1 µM (phospho-akt (Thr308); PC-3 cells): < 25%; inhibition at 10 µM (phospho-akt (Thr308); PC-3 cells): 25 to 75%
O=C(NCc1cccc(-c2c[nH]c3ncc(-c4cccnc4)cc23)c1)c1cccn(Cc2ccc(F)c(F)c2)c1=O [Cpd 47] | < 500 | < 1 | 
NCc1cnc2[nH]cc(-c3cccc(CNC(=O)c4cccn(Cc5ccc(F)c(F)c5)c4=O)c3)c2c1 [Cpd 243] | < 500 | < 1 | EC50 (phospho-akt (Thr308); [2]): 1 to 5 µM
O=C(C[C@@H](NC(=O)c1cccn(Cc2ccc(F)c(F)c2)c1=O)c1ccc(-c2c[nH]c3ncccc23)s1)NC1CC1 [Cpd 33] | < 500 | 1 to 5 | EC50 (phospho-akt (Thr308); [2]): 1 to 5 µM
O=C(N[C@@H](/C=C/c1ccc2[nH]c(=O)[nH]c2c1)c1ccccc1)c1cccn(Cc2cc(F)c(F)c(F)c2)c1=O [Cpd 183] | < 500 |  | EC50 (phospho-akt (Thr308); read-out: Inhibition of P308 Akt in cells using MSD EC50): 1 to 5 µM
O=C(NCc1cccc(-c2cc[nH]c(=O)c2)c1)c1cccn(Cc2ccc(F)c(F)c2)c1=O [Cpd 224] |  |  | IC50 (dephosphorylated PDK1): 500 to 10000 nM
C[C@@H](c1ccc(Cl)cc1)n1cc(Cl)cc(C(=O)NCc2noc(-c3c[nH]c4ncccc34)n2)c1=O [Cpd 315] | < 500 | < 1 | inhibition at 1 µM (phospho-akt (Thr308); PC-3 cells): 25 to 75%; inhibition at 10 µM (phospho-akt (Thr308); PC-3 cells): > 75%
O=C(N[C@@H](COc1ccc2[nH]c(=O)[nH]c2c1F)c1ccccc1)c1cccn(Cc2cc(F)c(F)c(F)c2)c1=O [Cpd 177] | < 500 | < 1 | 
O=C(Nc1n[nH]c2ccc(-c3c[nH]c4ncccc34)cc12)c1cccn(Cc2ccc(F)c(F)c2)c1=O [Cpd 245] | < 500 | 1 to 5 | 
CCNC(=O)c1cnc2[nH]cc(-c3ccc(CNC(=O)c4cccn(Cc5ccc(F)c(F)c5)c4=O)s3)c2c1 [Cpd 41] | < 500 | < 1 | EC50 (phospho-akt (Thr308); [2]): < 1 µM
